Test results taken from patent publication US8658699B2, “Chemical permeation enhancers enhance nerve blockade by toxins” (priority 2008, dated 2014).
Where “and” joins values, the source holds several entries; their conditions need not be identical. Identical values can stand only once. Like-named read-outs stand apart in the source and are kept apart here.

How the values were obtained:
[1] = system: sciatic nerve; conditions: for TTX block duration compared to TTX alone: 30 μM TTX with CPE at the concentration giving maximum percentage of block, p<0.001; for % Animals with Effective Block / Duration of Sensory Block: Bupivacaine 1.4 mM with the EC50eff of each CPE, listed as '—' = bupivacaine alone; for Duration of Sensory Block: median; for Maximum Block Duration (MBD, minutes): CPE co-injected with 30 μM TTX, 0.3 mL at sciatic nerve, median (25th-75th percentiles); for ECMBD: CPE concentration that caused the maximum prolongation of block from 30 μM TTX; for CPE Concentration: lowest CPE concentration needed to achieve the highest percentage of animals with block, with 30 μM TTX; for EC50: read-out: EC50eff
[2] = system: C2C12 myotubes; conditions: for % Survival: C2C12 myotubes, 2-hour exposure to each CPE at its EC50eff, head 'TTX 30 μm with:', mean ± SD, from FIG. 2
[3] = system: sciatic nerves and surrounding muscle
[4] = system: sciatic nerve; assay: animal or person; conditions: Rattus norvegicus, read-out: EC50eff (mM)
[5] = system: sciatic nerve; assay type: in vivo, Sprague-Dawley rats
[6] = system: sciatic nerve; conditions: 0.1-0.3 mL of 0.25%-0.5% (8.7-17 mM) bupivacaine (Kohane 1998, 1999); cited from earlier work
[7] = 30 μM TTX with CPE, effective if latency >7 seconds at any point, listed as '—' = TTX alone
[8] = EC50eff of each enhancer without TTX, four days after injection, 4 animals per group

## CCCCCCCCCCCC[N+](C)(C)C.[Br-] [DDAB, Dodecyl-trimethyl-ammonium Bromide]
[1]; 30 μM TTX in 32 mM DDAB
  resolution of nerve block: none of those rats' nerve blocks resolved
[1]
  TTX block duration compared to TTX alone: significantly improved TTX block duration
  % Animals with Effective Block: 0%
  Duration of Sensory Block: 0 min
  ECMBD: 8 mM
  CPE Concentration: 6 mM
[1]; [7]
  Highest % Animals with Effective Block: 100%
[1]; 32 mM DDAB alone, without TTX, the exception to 'CPE alone did not cause nerve blockade'
  nerve blockade by CPE alone: with one exception
[1]; listed as '—' = TTX alone
  Maximum Block Duration (MBD, minutes): 606 (452-788) minutes
[1]; rat, in vivo
  EC100 min: 1 mM
[2]
  % Survival: 5 ± 0.2%
[3]; 3% (97.3 mM) DDAB, two animals
  histology: tissue damage: deep and severe tissue damage, including ischemic necrosis, accompanied by severe and extensive inflammation
[3]; [8]
  histology: muscle and nerve injury: moderate to severe infiltration of macrophages and lymphocytes, atrophy and degeneration of muscle fibers, and fibrosis of the tissue
[3]; EC50eff of the enhancers together with 30 μm TTX
  histology: muscle and nerve injury: severe lymphocytic inflammatory infiltration of muscle with degenerative changes, regenerative changes, and fibrosis
[4]
  EC50: 6 mM

## CC[N+](CC)(CC)CC(=O)Nc1c(C)cccc1C [QX-314, N-(2,6)dimethylphenylcarbamoylmethyl triethylammonium bromide]
[5]; rat, in vivo
  thermal nociceptive and motor blockade of the combination with TTX: increased blockade significantly more than the mere cumulative value of the anesthetics alone

## CCCCCCCC[N+](C)(C)C.[Br-] [OTAB, Octyl-trimethyl-ammonium Bromide]
[1]
  TTX block duration compared to TTX alone: significantly improved TTX block duration
  % Animals with Effective Block: 0%
  Duration of Sensory Block: 0 min
  ECMBD: 119 mM
  CPE Concentration: 40 mM
[1]; [7]
  Highest % Animals with Effective Block: 100%
[1]; listed as '—' = TTX alone
  Maximum Block Duration (MBD, minutes): 353 (327-361) minutes
[1]; rat, in vivo
  EC100 min: 31 mM
[2]
  % Survival: 53 ± 2%
[3]; [8]
  histology: muscle and nerve injury: no significant muscle or nerve injury
[4]
  EC50: 30 mM

## Cc1cccc(C)c1NC(=O)C[N+](C)(C)C [QX-222, 2-((2,6-dimethylphenyl)amino)-N,N,N-trimethyl-2-oxoethanaminium]
[5]; 25 and 70 mM QX-314 or 70 and 100 mM QX-222 with 30, 40 or 50 μM TTX, FIGS. 5A and B
  thermal nociceptive and motor blockade of the combination with TTX: increased blockade significantly more than the mere cumulative value of the anesthetics alone

## polysorbate 80 [TW 80]
[1]
  TTX block duration compared to TTX alone: significantly improved TTX block duration
  % Animals with Effective Block: 0%
  Duration of Sensory Block: 0 min
  ECMBD: 81 mM
  CPE Concentration: 81 mM
[1]; [7]
  Highest % Animals with Effective Block: 100%
[1]; listed as '—' = TTX alone
  Maximum Block Duration (MBD, minutes): 120 (111-143) minutes
[1]; rat, in vivo
  EC100 min: 40 mM
  EC50: 34 mM
[2]
  % Survival: 80 ± 8%
[3]; [8]
  histology: muscle and nerve injury: no significant muscle or nerve injury

## NC1=N[C@H](O)[C@H]2[C@H]3O[C@]4(O)O[C@@H]([C@@H](O)[C@@]2(N1)[C@@H]4O)[C@]3(O)CO [TTX, tetrodotoxin, reference compound]
[1]; rat, in vivo
  % of animals with sensory blockade (effective nerve block): 29% and 29.2%
  Highest % Animals with Effective Block: 29%

## CCCCN1CCCCC1C(=O)Nc1c(C)cccc1C (stereo not drawn) [Bupivacaine, bupivacaine, reference compound]
[1]
  % Animals with Effective Block: 42%
  Duration of Sensory Block: 0 min
[6]
  successful blocks: > 99%

## CCCCCCCCOS(=O)(=O)[O-].[Na+] [SOS, Sodium Octyl Sulfate]
[1]
  TTX block duration compared to TTX alone: significantly improved TTX block duration
  % Animals with Effective Block: 25%
  Duration of Sensory Block: 0 min
  ECMBD: 86 mM
  CPE Concentration: 32 mM
[1]; [7]
  Highest % Animals with Effective Block: 100%
[1]; listed as '—' = TTX alone
  Maximum Block Duration (MBD, minutes): 521 (361-669) minutes
[1]; rat, in vivo
  EC100 min: 22 mM
[2]
  % Survival: 5 ± 3%
[3]; [8]
  histology: muscle and nerve injury: no significant muscle or nerve injury
[4]
  EC50: 32 mM

## CCCCCCCCCCCCOS(=O)(=O)[O-].[Na+] [SLS, Sodium Dodecyl Sulfate]
[1]
  TTX block duration compared to TTX alone: significantly improved TTX block duration
  % Animals with Effective Block: 50%
  Duration of Sensory Block: 22 min
  ECMBD: 35 mM
  CPE Concentration: 17 mM
[1]; [7]
  Highest % Animals with Effective Block: 88%
[1]; interpolated concentration of CPE that increased block duration of 30 μM TTX to 100 min
  EC100 min: 3 mM
[2]
  % Survival: 17 ± 11%
[3]; [8]
  histology: muscle and nerve injury: no significant muscle or nerve injury
[4]
  EC50: 4 mM

## polysorbate 20 [TW 20]
[1]
  TTX block duration compared to TTX alone: significantly improved TTX block duration
  % Animals with Effective Block: 25%
  Duration of Sensory Block: 0 min
  ECMBD: 49 mM
  CPE Concentration: 4 mM
[1]; [7]
  Highest % Animals with Effective Block: 100%
[1]; listed as '—' = TTX alone
  Maximum Block Duration (MBD, minutes): 163 (129-206) minutes
[1]; rat, in vivo
  EC100 min: 4 mM
[1]; CPE concentration causing half-maximal increase in duration of block (half-MBD) of 30 μM TTX
  EC50: 3 mM
[2]
  % Survival: 94 ± 3%
[2]; CPE at EC50eff, 8-hour exposure / increasing duration of exposure (data not shown)
  C2C12 viability after longer exposure: remained at untreated-control levels
[3]; [8]
  histology: muscle and nerve injury: no significant muscle or nerve injury
[3]; Tween 20 at 24.4 and 81.4 mM
  histology: muscle and nerve injury: progressively worsening (mild to moderate) muscle atrophy and inflammation
